# According to US20220273631A1, “METHOD FOR TREATING SEXUAL DYSFUNCTION” (Catalyst Pharmaceuticals, Inc., priority 2019, published 2022):
# System: subject two
# Assay: International Index of Erectile Function (IIEF) self-report before and after 4-week oral treatment
# Format: in vivo, human
# Set-up: key to IIEF question 1 score: able to get an erection during sexual activity / IIEF question 4 score: able to maintain erection after penetration / IIEF question 7 score: attempted intercourse satisfactory: each question scored 0-5
# Settings: for IIEF question 1 score: able to get an erection during sexual activity / IIEF question 2 score: erections hard enough for penetration / IIEF question 3 score: able to penetrate partner when attempting intercourse / IIEF question 4 score: able to maintain erection after penetration / IIEF question 5 score: difficulty to maintain erection to completion of intercourse / IIEF question 6 score: attempts for sexual intercourse / IIEF question 7 score: attempted intercourse satisfactory / IIEF question 8 score: enjoyment of sexual intercourse / IIEF question 9 score: ejaculated with sexual stimulation or intercourse / IIEF question 10 score: feeling of orgasm or climax / IIEF question 11 score: how often felt sexual desire / IIEF question 12 score: level of sexual desire / IIEF question 13 score: satisfaction with overall sex life / IIEF question 14 score: satisfaction with sexual relationship with partner / IIEF question 15 score: confidence to get and keep an erection: post-treatment IIEF
# From the text: The “International Index of Erectile Function” or “IIEF” is a self-report inventory consisting of 15 questions and 5 functional domains, which was developed for use in determining efficacy of treatment in controlled clinical trials. The IIEF has high sensitivity and specificity for detecting real treatment effects or the lack of treatment effects in patients with ED of broad-spectrum etiology. A score of 0-5 is awarded to each of the 15 questions that examine the 4 main domains of male sexual function: erectile function, orgasmic function, sexual desire, and intercourse satisfaction. Rosen, R., et al. (in Urology 49:822-830 (1997)) describe a study where the IIEF was tested in a series of 111 men with […] and 109 age-matched, normal volunteers. In some embodiments, the therapeutic efficacy of 3,4-diaminopyridine, or a pharmaceutically acceptable thereof, in the present methods in male subjects can be assessed by the Brief Male Sexual Function Inventory (BSFI) described by, for example, Mykletun et al., BJU International 97:316-323 (2005). In some embodiments, the Male Sexual Health Questionnaire (MSHQ) can be used to assess sexual function and satisfaction in older men with urogenital symptoms of lower urinary tract and sexual dysfunction. See, e.g., Rosen, et al., Urology 64(4):777-782 (2004). In some embodiments, the therapeutic efficacy of 3,4-diaminopyridine, or a pharmaceutically acceptable thereof, in the present methods in male subjects, can be assessed by the 15-question International Index of Erectile Function (IIEF) described by, for example, Rosen et al., Urology 49:822-830 (1997). […] The subject then orally self-administered a total daily dose of 60 mg (4 times 15 mg) of 3,4-diaminopyridine phosphate salt for 4 weeks. The last dose of each day was self-administered at about 8:30 pm. The timing of their sexual activity, if any, was at about 11:30 am (after the 11 am dose) or at about 4 pm. After the 4-week treatment period, the subject self-reported sexual functioning for the past 4 weeks using the IIEF questionnaire (“the post-treatment IIEF”). […] The subject then orally self-administered a total daily dose of 80 mg (4 times 20 mg) of 3,4-diaminopyridine phosphate salt for 4 weeks. The last dose of each day was self-administered at about 6:30 pm. The timing of their sexual activity, if any, was at about 7:30 pm. After the 4-week treatment period, the subject self-reported sexual functioning for the past 4 weeks using the IIEF questionnaire (“the post-treatment IIEF”).
# [1] = Example 4, subject, 60 mg daily (4 times 15 mg) orally for 4 weeks
# [2] = Example 4, subject, 60 mg daily orally for 4 weeks
# [3] = Example 4, subject, 60 mg daily orally for 4 weeks, maximum score 10, pre-treatment score 4
# [4] = Example 5, subject, 80 mg daily (4 times 20 mg) orally for 4 weeks
structure (smiles),measurement,setting,value
"Nc1ccncc1N.O=P(O)(O)O [3,4-diaminopyridine phosphate salt]",IIEF question 1 score: able to get an erection during sexual activity,[1],4
same,IIEF question 2 score: erections hard enough for penetration,[1],4
same,IIEF question 3 score: able to penetrate partner when attempting intercourse,[1],4
same,IIEF question 4 score: able to maintain erection after penetration,[1],3
same,IIEF question 5 score: difficulty to maintain erection to completion of intercourse,[1],4
same,IIEF question 6 score: attempts for sexual intercourse,[1],3
same,IIEF question 7 score: attempted intercourse satisfactory,[1],4
same,IIEF question 8 score: enjoyment of sexual intercourse,[1],4
same,IIEF question 9 score: ejaculated with sexual stimulation or intercourse,[1],4
same,IIEF question 10 score: feeling of orgasm or climax,[1],4
same,IIEF question 11 score: how often felt sexual desire,[1],5
same,IIEF question 12 score: level of sexual desire,[1],4
same,IIEF question 13 score: satisfaction with overall sex life,[1],4
same,IIEF question 14 score: satisfaction with sexual relationship with partner,[1],4
same,IIEF question 15 score: confidence to get and keep an erection,[1],4
same,arousal (subject report),[2],more aroused
same,overall sexual performance (subject report),[2],better
same,effect on all the 5 IIEF domains of male sexual function,"Example 4, subject, 60 mg daily orally for 4 weeks, Table 3",improved
same,"Post-Treatment Score, IIEF domain B. Orgasmic Function (questions 9 and 10)",[3],8
same,"Post-Treatment Score, IIEF domain E. Overall Satisfaction (questions 13 and 14)",[3],8
same,"Post-Treatment Score, IIEF domain C. Sexual Desire (questions 11 and 12)","Example 4, subject, 60 mg daily orally for 4 weeks, maximum score 10, pre-treatment score 5",9
same,"Post-Treatment Score, IIEF domain D. Intercourse Satisfaction (questions 6-8)","Example 4, subject, 60 mg daily orally for 4 weeks, maximum score 15, pre-treatment score 5",11
same,"Post-Treatment Score, IIEF domain A. Erectile Function (questions 1-5 and 15)","Example 4, subject, 60 mg daily orally for 4 weeks, maximum score 30, pre-treatment score 8",23
same,IIEF question 1 score: able to get an erection during sexual activity,[4],4
same,IIEF question 2 score: erections hard enough for penetration,[4],4
same,IIEF question 3 score: able to penetrate partner when attempting intercourse,[4],4
same,IIEF question 4 score: able to maintain erection after penetration,[4],3
same,IIEF question 5 score: difficulty to maintain erection to completion of intercourse,[4],4
same,IIEF question 6 score: attempts for sexual intercourse,[4],3
same,IIEF question 7 score: attempted intercourse satisfactory,[4],4
same,IIEF question 8 score: enjoyment of sexual intercourse,[4],4
same,IIEF question 9 score: ejaculated with sexual stimulation or intercourse,[4],4
same,IIEF question 10 score: feeling of orgasm or climax,[4],4
same,IIEF question 11 score: how often felt sexual desire,[4],5
same,IIEF question 12 score: level of sexual desire,[4],4
same,IIEF question 13 score: satisfaction with overall sex life,[4],4
same,IIEF question 14 score: satisfaction with sexual relationship with partner,[4],4
same,IIEF question 15 score: confidence to get and keep an erection,[4],4
same,overall sexual performance (subject report),"Example 5, subject, 80 mg daily orally for 4 weeks",better
